# Test results published in US20030207886A1, “Preparation containing quinoxaline derivatives” (priority 2000, published 2003).
# Assay: Maxima of UV-A and UV-B absorption of quinoxaline derivatives in 2-propanol
# Assay type: physicochemical
# Settings: 1 mg of substance per 100 ml of solvent; for UV-B (280 320 nm) Max. abs.: absorbance at UV-B maximum; for UV-B (280 320 nm) λ [nm]: wavelength of UV-B maximum; for UV-A (400 320 nm) Max. abs.: absorbance at UV-A maximum; for UV-A (400 320 nm) λ [nm]: wavelength of UV-A maximum
# Protocol: The measurement was carried out in 2-propanol at a concentration of 1 mg of substance per 100 ml of solvent.
Structure (SMILES),UV-B (280 320 nm) Max. abs.,UV-B (280 320 nm) λ [nm],UV-A (400 320 nm) Max. abs.,UV-A (400 320 nm) λ [nm]
Fc1cc(F)c(N(c2cnc3ccccc3n2)c2cnc3ccccc3n2)c(F)c1,0.966,289.3,,
Clc1nc2ccccc2nc1C#Cc1ccccc1,0.6431,286.0,,
Brc1ccc2nc3nc4ccccc4nc3n2c1,,,0.4113,354 nm
CCc1ccn2c(c1)nc1nc3ccccc3nc12,,,0.536,356.1 nm
O=C(c1ccccc1)c1ccccc1Nc1cnc2ccccc2n1,,,0.424,395.4 nm
O=c1[nH]c2ccccc2nc1-c1ccccc1,0.373,305.0,0.360,365.0 nm
Cc1ccc(/C=C/c2nc3ccccc3[nH]c2=O)cc1,,,0.4660,336.0 nm
O=C(c1ccccc1)c1cnc2ccccc2n1,0.330,300.0,,
O=C(/C=C/c1ccc2c(c1)OCO2)c1cnc2ccccc2n1,0.4556,305.0,0.5101,381.0 nm
COC(=O)c1cc(Nc2cnc3ccccc3n2)cc(C(=O)OC)c1,0.789,287.7,0.322,368.3 nm
c1ccc2nc(Oc3cnc4ccccc4n3)cnc2c1,,,0.2587,320.0 nm
COc1cc(Nc2cnc3ccccc3n2)cc(OC)c1OC,0.679,275.6,0.281,386.1 nm
Cc1ccc(/C=C/c2nc3ccccc3nc2/C=C/c2ccc(C)cc2)cc1,0.3327,316.0,,
Nc1nc2ccccc2nc1NC(=O)c1cc(C(F)(F)F)cc(C(F)(F)F)c1,,,0.4130,354.0 nm
Fc1ccc2nc3nc4ccccc4nc3n2c1,,,0.132,344.6 nm
CCC(CC)COC(=O)c1ccc(Nc2cnc3ccccc3n2)c(O)c1,0.5569,291.0,,
Clc1nc2ccccc2nc1-c1ccccc1,,,0.173,335.0 nm
Brc1cnc2ccccc2n1,,,0.4424,321.0 nm
C(#Cc1nc2ccccc2nc1C#Cc1ccccc1)c1ccccc1,0.8366,294.0,0.4443,385.0 nm
Nc1nc2ccccc2nc1Cl,,,0.427,353.4 nm
Fc1nc2ccccc2nc1N(c1ncccn1)c1nc2ccccc2nc1F,,,0.446,329.8 nm
Cc1ccc(S(=O)(=O)c2cnc3ccccc3n2)cc1,,,0.1595,321.0 nm

Structure (SMILES),UV-B (280 320 nm) Max. abs.,UV-B (280 320 nm) λ [nm],UV-A (400 320 nm) Max. abs.,UV-A (400 320 nm) λ [nm]
CCOC(=O)c1nc2ccccc2[nH]c1=O,0.279,290.0,0.245,355.8 nm
COc1cc(Nc2nc3ccccc3nc2-c2ccccc2)c(C(=O)O)cc1OC,0.635,285.6,0.235,393.4 nm
c1ccc(CNc2cnc3ccccc3n2)cc1,,,0.2602,364.0 nm
c1ccc2nc(-c3cnc4ccccc4n3)cnc2c1,,,0.7687,341.0 nm
COC(=O)CCc1ccc2nc3nc4ccccc4nc3n2c1,,,0.3747,349.5 nm
Cc1nc2ccc(Cl)cc2nc1C,,,0.400,322.0 nm
O=c1[nH]c2ccccc2nc1/C=C/C=C/c1ccccc1,0.6004,281.5,,
COc1cc(Nc2cnc3ccccc3n2)c(C(=O)O)cc1OC,0.455,300.1,0.456,380.1 nm
CC(=O)c1ccn2c(c1)nc1nc3ccccc3nc12,,,0.533,364.8 nm
c1ccc2nc3c(nc2c1)nc1ccccn13,,,0.411,348.3 nm
CN(C)c1cnc2ccccc2n1,,,0.413,378.0 nm
COc1cc(Nc2nc3ccccc3nc2-c2ccccc2)cc(OC)c1OC,0.475,287.6,0.175,390.4 nm
FC(F)(F)c1cc(CNc2cnc3ccccc3n2)cc(C(F)(F)F)c1,,,0.192,359.0 nm
O=C(OC/C=C/c1ccccc1)c1ccccc1Nc1cnc2ccccc2n1,,,0.469,386.3 nm
CC(C)c1ccc(/C=C/C(=O)c2cnc3ccccc3n2)cc1,,,0.7731,343.0 nm
O=C(/C=C/C=C/c1ccccc1)c1cnc2ccccc2n1,0.6584,302.0,1.0497,365.0 nm
O=c1[nH]c2ccccc2nc1/C=C/c1ccccc1,,,0.7324,388.5 nm
CC(=O)c1nc2ccccc2nc1C(C)=O,0.3011,310.0,,
CCC(=O)c1cnc2ccccc2n1,0.3236,307.0,,
O=C(/C=C/c1ccccc1)c1cnc2ccccc2n1,,,0.1731,329.0 nm
CC(C)c1ccc(C(=O)c2nc3ccccc3nc2C(=O)c2ccc(C(C)C)cc2)cc1,0.45,280.0,,
Clc1ccc(Nc2cnc3ccccc3n2)c(Cl)c1,0.757,280.7,0.248,365.2 nm

# Further lines, results first:
UV-B (280 320 nm) Max. abs.,UV-B (280 320 nm) λ [nm],UV-A (400 320 nm) Max. abs.,UV-A (400 320 nm) λ [nm],Structure (SMILES)
0.4067,287.0,0.1187,381.5 nm,CCOC(=O)c1nc2ccccc2nc1Nc1cc(F)c(F)cc1C(=O)O
0.887,286.9,0.319,372.8 nm,O=C(O)c1cc(Nc2cnc3ccccc3n2)cc(C(=O)O)c1
0.452,303.8,0.325,376.8 nm,O=C(O)c1ccc(Nc2nc3ccccc3nc2-c2ccccc2)cc1
,,0.243,322.9 nm,CCOC(=O)c1nc2ccccc2nc1Cl
1.262,306.7,0.555,374.3 nm,CC(C)OC(=O)c1ccc(Nc2cnc3ccccc3n2)cc1
,,0.5594,381.0 nm,O=C(O)c1ccc(Nc2cnc3ccccc3n2)c(O)c1
1.141,297.2,0.378,374.1 nm,O=C(O)c1ccc(Nc2cnc3ccccc3n2)cc1
1.270,311.5,,,CCOC(=O)c1nc2ccccc2nc1Nc1ccc(C(=O)O)cc1
0.4672,291.0,,,CC(C)(C)OC(=O)c1ccc(Nc2nc3ccccc3nc2Cl)cc1
,,1.2265,328.5 nm,CCOC(=O)c1nc2ccccc2nc1Nc1ccc(C(C)=O)cc1
0.837,302.9,,,O=C(O)c1ccc(NCc2cnc3ccccc3n2)cc1
0.5713,295.0,,,CCOC(=O)c1nc2ccccc2nc1Nc1cc(OC)c(OC)cc1C(=O)O
1.172,306.3,0.506,374.3 nm,CC(C)(C)OC(=O)c1ccc(Nc2cnc3ccccc3n2)cc1
0.849,305.3,0.342,381.9 nm,CC(C)OC(=O)c1ccc(Nc2nc3ccccc3nc2-c2ccccc2)cc1
1.2839,306.0,0.5414,375.0 nm,CCOC(=O)c1ccc(Nc2cnc3ccccc3n2)cc1
1.062,314.7,0.622,374.9 nm,CC(=O)c1ccc(Nc2cnc3ccccc3n2)cc1
0.756,307.0,0.3076,380.0 nm,CCOC(=O)CCC(NC(=O)c1ccc(Nc2cnc3ccccc3n2)cc1)C(=O)OCC (centres unmarked)
0.2183,290.0,,,O=C(O)c1ccc(CNc2nc3ccccc3nc2Cl)cc1
0.837,291.1,0.306,386.9− nm,COc1ccc(Nc2cnc3ccccc3n2)cc1
